In brackets after ≈: the same amount, converted by molar mass. Read-outs that look alike come from different tables or passages of the source.
Assays:
Type in all cases: cell-based
[1] = tested on: Enterobacterales overproducing AmpC; assay: Broth microdilution susceptibility of isolates overexpressing AmpC
Procedure: (§1) Frozen-form broth microdilution panels were manufactured by JMI Laboratories and contained cation-adjusted Mueller-Hinton broth. Quality assurance was performed by sterility checks, colony counts, and testing CLSI recommended quality control reference strains.

[2] = tested on: P. aeruginosa isolates that overproduced AmpC; assay: as above
Procedure: as §1

[3] = tested on: AmpC production in Enterobacterales; assay: AmpC induction (nitrocefin hydrolysis after drug exposure); conditions: tebipenem/imipenem except for C. koseri and S. marcescens
Procedure: (§2) AmpC induction was determined as follows. Baseline MIC values were determined by broth microdilution method, as described above, for 9 Gram-negative isolates with basal expression of ampC. These isolates were cultured overnight on blood agar plates. A standardized inoculum made from fresh overnight plate cultures was added to flasks containing 50 mL of Luria-Bertani (LB) broth and incubated by shaking at 37° C. to OD600 of 0.3. […] These cultures were incubated under shaking conditions. A 40 mL aliquot of bacterial cultures was sampled at time 0 and 2 hours after drug exposures. Each sample aliquot was harvested by centrifugation and the supernatant was discarded.
(§3) Protein crude extract preparations were made in 200 μL of BugBusterR (Novagen, Darmstadt, Germany) per manufacturer instructions and cell debris was removed by centrifugation. Protein concentrations were determined in each crude extract by standard methodologies.
(§4) AmpC induction was measured by the intensity of β-lactamase hydrolytic activity against 0.1 mM nitrocefin in 0.1 M phosphate buffer at pH 7.0 using spectrophotometry at 482 nm (Δ absorbance/minute/mg of protein). The drug exposure conditions that caused a >4-fold increase in hydrolysis activity compared to the baseline were subjected to postinduction experiments. Briefly, cells were grown under the same conditions as before and tested for susceptibility by broth microdilution.

[4] = tested on: AmpC production in P. aeruginosa; assay: as above
Procedure: as §2, §3, §4

E. coli [5] = assay: Broth microdilution against US UTI pathogens 2019-2020; conditions: E. coli (2,339); for % susceptible; CLSI: cefuroxime: oral breakpoint
Procedure: (§5) This study assessed the in vitro activity of tebipenem and comparator agents against Enterobacterales (ENT) responsible for UTIs in the US during 2019-2020. A total of 3,576 ENT recovered from urine samples during the 2019-2020 STEWARD Surveillance Program were included in the study. Isolates were collected from medical centers in all 9 US Census Regions and were centrally tested for susceptibility by reference broth microdilution method. MIC interpretation was performed based on CLSI criteria.

Enterobacterales (ENT) = assay: as above; conditions: for % susceptible; CLSI: cefuroxime: oral breakpoint
Procedure: as §5

K. pneumoniae = assay: as above; conditions: K. pneumoniae (511); for % susceptible; CLSI: cefuroxime: oral breakpoint
Procedure: as §5

P. mirabilis = assay: as above; conditions: P. mirabilis (235); for % susceptible; CLSI: cefuroxime: oral breakpoint
Procedure: as §5

E. coli [6] = assay: Susceptibility of E. coli from urinary tract infections, 18 EU countries 2020 (STEWARD)
Procedure: The study assessed the prevalence of resistance and evaluated the activity of oral tebipenem (TBP) and comparators against EC from urinary tract infections.
Results were interpreted using EUCAST criteria. […] ESBL phenotypes were determined by CLSI criteria and sequenced to identify CTX-M-15 genotype and clonal complex ST131.

[7] = tested on: Vancomycin-susceptible Enterococcus faecalis; assay: Broth microdilution against Gram-positive clinical isolates; conditions: E. faecalis; for MIC90: Enterococcus faecalis, 31 isolates
Procedure: (§6) The purpose of this study was to investigate the in vitro activity of tebipenem and comparator agents, including ertapenem and meropenem, against a recent collection of Gram-positive isolates associated with clinical infections. The susceptibility of 580 Gram-positive organisms were tested, including: Methicillin-susceptible Staphylococcus aureus (MSSA, 489 isolates), Methicillin-susceptible Staphylococcus epidermidis (MSSE, 31), other methicillin-susceptible coagulase-negative staphylococci (MSCONS, 29), and Vancomycin-susceptible Enterococcus faecalis (31). Bacterial species were identified by JMI Laboratories using standard microbiology methods and matrix-assisted laser desorption ionization-time of flight mass spectrometry (Bruker Daltonics, Bremen, Germany). The isolates were collected in 2018 and 2019 as part of the SENTRY surveillance program and selected to be representative of these species with 45.0% from the United States, 44.3% from Europe, 5.3% from the Asia-Pacific region, and 5.3% from Latin America. Isolates are primarily from pneumonia in hospitalized patients (498 isolates; 85.9%), urinary tract infections (42 isolates; 7.2%), and bloodstream infections (38 isolates; 6.6%). Isolates were tested in a central laboratory (JMI Laboratories) for antimicrobial susceptibility using the CLSI M07 (2018) reference broth microdilution method. JMI Laboratories produced frozen-form 96-well panels and used cation-adjusted Mueller-Hinton broth (CA-MHB) as the testing medium. All categorical interpretations used CLSI M100 (2021) and EUCAST v10.0 (2021) breakpoint criteria, where published. Quality control organisms include Escherichia coli ATCC 25922, Escherichia coli ATCC 35218, Enterococcus faecalis ATCC 29212, Pseudomonas aeruginosa ATCC 27853, and Staphylococcus aureus ATCC 29213 were tested concurrently with clinical isolates.

[8] = tested on: Methicillin-susceptible Staphylococcus aureus (MSSA); assay: as above
Procedure: as §6

[9] = tested on: Methicillin-susceptible Staphylococcus epidermidis (MSSE); assay: as above
Procedure: as §6

[10] = tested on: other methicillin-susceptible coagulase-negative staphylococci (MSCONS); assay: as above
Procedure: The purpose of this study was to investigate the in vitro activity of tebipenem and comparator agents, including ertapenem and meropenem, against a recent collection of Gram-positive isolates associated with clinical infections. The susceptibility of 580 Gram-positive organisms were tested, including: […] Bacterial species were identified by JMI Laboratories using standard microbiology methods and matrix-assisted laser desorption ionization-time of flight mass spectrometry (Bruker Daltonics, Bremen, Germany). […] Isolates were tested in a central laboratory (JMI Laboratories) for antimicrobial susceptibility using the CLSI […] (2018) reference broth microdilution method. JMI Laboratories produced frozen-form 96-well panels and used cation-adjusted Mueller-Hinton broth (CA-MHB) as the testing medium. […] Quality control organisms include Escherichia coli ATCC 25922, Escherichia coli ATCC 35218, Enterococcus faecalis ATCC 29212, Pseudomonas aeruginosa ATCC 27853, and Staphylococcus aureus ATCC 29213 were tested concurrently with clinical isolates.

[11] = tested on: methicillin-susceptible staphylococci, including MSSA, MSSE, and other MSCONS; assay: Broth microdilution against Gram-positive clinical isolates, summary
Procedure: as §6, with “JMI Laboratories produced frozen-form 96-well panels and used cation-adjusted Mueller-Hinton broth (CA-MHB) as the testing medium. All categorical interpretations used CLSI M100 (2021) and EUCAST v10.0 (2021) breakpoint criteria, where published. Quality control organisms include Escherichia coli ATCC 25922, Escherichia coli ATCC 35218, Enterococcus faecalis ATCC 29212, Pseudomonas aeruginosa ATCC 27853, and Staphylococcus aureus ATCC 29213 were tested concurrently with clinical isolates.” left out

[12] = P. aeruginosa overproducing AmpC
[13] = Staphylococcus aureus, 489 isolates
[14] = Staphylococcus epidermidis, 31 isolates

## CC(C)(O/N=C(\C(=O)N[C@@H]1C(=O)N2C(C(=O)[O-])=C(C[n+]3ccccc3)CS[C@H]12)c1csc(N)n1)C(=O)O [Ceftazidime]
[1]; Enterobacterales (36)
  CLSI %1: 11.4%
  CLSI % R: 60.0%
  CLSI % S: 28.6%
[1]; Enterobacterales (36), read-out: MIC50
  MIC50: 32 µg/mL (≈ 58.5 µM)
[1]; Enterobacterales (36), read-out: MIC90
  MIC90: > 32 µg/mL
[2]; P. aeruginosa (32)
  CLSI % R: 71.9%
  CLSI % S: 15.6%
[3]
  effect of exposure on production of AmpC: did not seem to affect production of AmpC
[4]
  effect of exposure on production of AmpC: increased the production of AmpC
E. coli [5]
  % susceptible; CLSI: (89.3) %
Enterobacterales (ENT); All (3,567)
  % susceptible; CLSI: (88.1%)
Enterobacterales (ENT); against ENT, EC, and KPN
  susceptibility: 86.1-89.3%
Enterobacterales (ENT); against ENT, EC, and KPN, read-out: MIC90
  MIC90: 8 to 16 µg/mL (≈ 14.6 to 29.3 µM)
K. pneumoniae
  % susceptible; CLSI: (86.1) %
P. mirabilis
  % susceptible; CLSI: (98.7) %
P. mirabilis; listed as CAZ
  % susceptible; CLSI: 98.7%

## C[C@H]1COc2c(N3CCN(C)CC3)c(F)cc3c(=O)c(C(=O)O)cn1c23 [Levofloxacin, levofloxacin]
E. coli [6]; all E. coli
  prevalence of resistant phenotype: 20.6%
[7]
  Susceptibility rate: 80.6%
E. coli [5]
  % susceptible; CLSI: (75.7) %
Enterobacterales (ENT); All (3,567)
  % susceptible; CLSI: (79.4) %
K. pneumoniae
  % susceptible; CLSI: (87.1) %
P. mirabilis
  % susceptible; CLSI: (71.8) %

## C[C@@H](O)[C@H]1C(=O)N2C(C(=O)O)=C(S[C@@H]3CN[C@H](C(=O)N(C)C)C3)[C@H](C)[C@H]12 [Meropenem, meropenem]
E. coli [6]; Escherichia coli, all E. coli (764) from UTIs
  MIC90: 0.03 µg/mL (≈ 0.0782 µM)
E. coli [6]; all E. coli, EUCAST criteria
  Susceptibility rate: 100%
[1]
  MIC50: 0.03 µg/mL (≈ 0.0782 µM)
  MIC90: 0.12 µg/mL (≈ 0.313 µM)
[1]; Enterobacterales (36)
  CLSI %1: 0.0%
  CLSI % R: 0.0%
  CLSI % S: 100.0%
  MIC50: 0.03 μ/ml
  MIC90: 0.12 μ/ml
  MIC range: ≤0.015 to 1 μ/ml
[2]; P. aeruginosa (32)
  CLSI %1: 0.0%
  CLSI % R: 0.0%
  CLSI % S: 100.0%
  MIC range: 0.12 to 2 μ/ml
[7]
  MIC90: > 1 µg/mL

## C[C@@H](O)[C@H]1C(=O)N2C(C(=O)O)=C(SC3CN(C4=NCCS4)C3)[C@H](C)[C@H]12 [Tebipenem, tebipenem]
[1]
  MIC50: 0.03 µg/mL (≈ 0.0782 µM)
  MIC90: 0.25 µg/mL (≈ 0.652 µM)
[1]; Enterobacterales (36)
  MIC50: 0.03 μ/ml
  MIC90: 0.25 μ/ml
  MIC range: 0.015 to 1 μ/ml
[1]; Enterobacterales overproducing AmpC
  concentration inhibiting all isolates: ≤ 1 µg/mL
[2]; P. aeruginosa (32)
  MIC range: 2 to 8 μ/ml
[2]; [12]
  MIC50: 4 µg/mL (≈ 10.4 µM)
  MIC90: 4 µg/mL (≈ 10.4 µM)
[3]
  effect of exposure on production of AmpC: increased production of AmpC
[4]
  effect of exposure on production of AmpC: increased the production of AmpC
[8]
  MIC90 fold lower than ertapenem: 8 fold
[8]; [13]
  MIC50: 0.015 µg/mL (≈ 0.0391 µM)
  MIC90: 0.03 µg/mL (≈ 0.0782 µM)
[9]
  MIC90 fold lower than ertapenem: 32 fold
[9]; [14]
  MIC50: 0.008 µg/mL (≈ 0.0209 µM)
  MIC90: 0.015 µg/mL (≈ 0.0391 µM)
[7]
  MIC90 fold lower than ertapenem: 16 fold
  MIC90 fold lower than meropenem: at least 2 fold
  concentration inhibiting all isolates: ≤ 1 mg/L
  MIC90: 1 µg/mL (≈ 2.61 µM)
[10]
  MIC90 fold lower than ertapenem: 32 fold
[10]; 29 isolates
  MIC50: 0.015 µg/mL (≈ 0.0391 µM)
  MIC90: 0.03 µg/mL (≈ 0.0782 µM)
[11]
  MIC50 and MIC90 values, range over species groups: 0.015 to 0.03 µg/mL
  activity fold greater than ertapenem: 16- to 32 fold
Enterobacterales (ENT); against ENT, EC, and KPN
  MIC90: 0.015 to 0.06 µg/mL (≈ 0.0391 to 0.156 µM)

## CC1(C)S[C@@H]2[C@H](NC(=O)[C@H](N)c3ccccc3)C(=O)N2[C@H]1C(=O)O [ampicillin]
[7]
  Susceptibility rate: 100.0%

## CC[C@H]1OC(=O)[C@H](C)[C@@H](O[C@H]2C[C@@](C)(OC)[C@@H](O)[C@H](C)O2)[C@H](C)[C@@H](O[C@@H]2O[C@H](C)C[C@H](N(C)C)[C@H]2O)[C@](C)(O)C[C@@H](C)C(=O)[C@H](C)[C@@H](O)[C@]1(C)O [erythromycin]
[8]
  Susceptibility rate: 65.6%
[9]
  Susceptibility rate: 54.8%
[10]
  susceptibility (% S): 54.8%

## trimethoprim-sulfamethoxazole [TMP-SMX]
E. coli [6]; all E. coli
  prevalence of resistant phenotype: 30.1%
[10]
  susceptibility (% S): 83.9%
E. coli [5]
  MIC50: ≤ 120 µg/mL
  MIC90: > 4000 µg/mL
  % susceptible; CLSI: (69.2) %
Enterobacterales (ENT); All (3,567)
  MIC50: ≤ 120 µg/mL
  MIC90: > 4000 µg/mL
  % susceptible; CLSI: (73.9) %
K. pneumoniae
  MIC50: ≤ 120 µg/mL
  MIC90: > 4000 µg/mL
  % susceptible; CLSI: (79.8) %
P. mirabilis
  MIC50: ≤ 120 µg/mL
  MIC90: > 4000 µg/mL

— patent US12048691B2 (SPERO THERAPEUTICS, INC., priority 2020, dated 2024)
